Results on 20 molecules are retold here after patent US9447148B2, “Melanocortin-1 receptor-specific cyclic peptides” (Palatin Technologies, Inc., priority 2009, dated 2016).

In one assay the target is hMCR-1 (Homo sapiens (Human), UniProt Q01726). Kind of assay: Assay for agonist activity: intracellular cAMP accumulation in HBL human melanoma cells. Particulars: for EC50: HBL cells expressing hMCR-1, averaged, read-out: MC-1 EC50 (average; cAMP HBL); for MC-1 Emax (average; cAMP HBL): HBL cells, maximum efficacy compared to reference agonist NDP-α-MSH. Type of assay: cell-based. The method, then:
Confluent HBL cells that express hMCR-1 or HEK-293 cells that express recombinant hMCR-4 were detached from culture plates by incubation in enzyme-free cell dissociation buffer. Dispersed cells were suspended in Earle's Balanced Salt Solution containing 10 mM HEPES (pH 7.5), 1 mM MgCl2, 1 mM glutamine, 0.5% albumin and 0.3 mM 3-isobutyl-1-methyl-xanthine (IBMX), a phosphodiesterase inhibitor. The cells were plated in 96-well plates at a density of 0.4×10^5 cells per well for HBL cells and 0.5×10^5 cells per well for HEK-293 cells and pre-incubated for 10 minutes. Cells were exposed for 15 minutes at 37° C. to peptides of the present invention dissolved in DMSO (final DMSO concentration of 1%) at a concentration range of 0.05-5000 nM in a total assay volume of 200 μL. […] Data analysis was performed by nonlinear regression analysis with Graph-Pad Prism® software.
(§1) Peptides of the following structures were synthesized and averaged MCR-1 and MCR-4 Ki values were determined as indicated. […] All results are expressed in nM except for Emax values, which are percentage values. Peptides with the captioned primary sequence were synthesized and purified as described in Section 5 above, with the resulting peptide having the structure depicted.

Another assay addresses hMCR-4 (Homo sapiens (Human), UniProt P32245). Kind of assay: Competitive inhibition binding assay using [I125]-NDP-α-MSH, hMCR-4. The following applies: membrane homogenates of HEK-293 cells, human recombinant receptor, averaged, read-out: MC-4 Ki (average). The method, then:
(§2) A competitive inhibition binding assay was performed using membrane homogenates prepared from HEK-293 cells that express recombinant hMCR-1a or hMCR-4 (in each instance where the h prefix refers to human), or alternatively membrane homogenates from B16-F10 mouse melanoma cells containing endogenous murine MCR-1. In the examples that follow, all MCR-1 and MCR-4 values are for human recombinant receptors, unless otherwise noted. Assays were performed in 96 well polypropylene round-bottom plates (VWR catalog number 12777-030). […] After incubation for 90 minutes at 37° C., the assay mixture was filtered onto GF/B Unifilter plates (Perkin-Elmer catalog number 6005177) and washed with 3 mL of ice-cold buffer per well. Filters were air dried and 35 μL of scintillation cocktail added to each well. Plates were counted in a Microbeta counter for bound radioactivity. […] Each assay was conducted in duplicate and the actual mean values are described, with results less than 0% reported as 0%. Ki values for peptides of the present invention were determined using Graph-Pad Prism® curve-fitting software.
as §1

The next assay has as its target hMCR-1a (Homo sapiens (Human), UniProt Q01726). The assay is described as follows: Competitive inhibition binding assay using [I125]-NDP-α-MSH, hMCR-1a. The following applies: membrane homogenates of HEK-293 cells, human recombinant receptor, averaged, read-out: MC-1 Ki (average). The method, then: as §2, §1

Bridge positions count the residues as written; N and C are the ends. Square brackets hold non-standard residues; d marks the D form. Peptide text beside a SMILES is read from it. dPhe(3,4-F2) = N[C@H](Cc1ccc(F)c(F)c1)C(=O)O; dPhe(4-Me) = Cc1ccc(C[C@@H](N)C(=O)O)cc1; Nle = CCCC[C@H](N)C(=O)O; Orn = NCCC[C@H](N)C(=O)O; Dab = NCC[C@H](N)C(=O)O

Chain of hMCR-1 (Q01726 whole entry): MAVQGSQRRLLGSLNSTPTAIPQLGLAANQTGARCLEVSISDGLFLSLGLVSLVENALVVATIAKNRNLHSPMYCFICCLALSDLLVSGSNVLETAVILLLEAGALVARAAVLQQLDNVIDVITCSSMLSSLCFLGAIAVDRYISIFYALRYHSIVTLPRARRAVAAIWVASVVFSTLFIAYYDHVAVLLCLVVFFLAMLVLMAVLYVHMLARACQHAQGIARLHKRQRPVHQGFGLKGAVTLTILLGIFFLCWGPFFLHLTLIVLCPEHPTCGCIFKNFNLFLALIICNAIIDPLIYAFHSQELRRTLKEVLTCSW
Chain of hMCR-1a (Q01726 whole entry): as above
Chain of hMCR-4 (P32245 whole entry): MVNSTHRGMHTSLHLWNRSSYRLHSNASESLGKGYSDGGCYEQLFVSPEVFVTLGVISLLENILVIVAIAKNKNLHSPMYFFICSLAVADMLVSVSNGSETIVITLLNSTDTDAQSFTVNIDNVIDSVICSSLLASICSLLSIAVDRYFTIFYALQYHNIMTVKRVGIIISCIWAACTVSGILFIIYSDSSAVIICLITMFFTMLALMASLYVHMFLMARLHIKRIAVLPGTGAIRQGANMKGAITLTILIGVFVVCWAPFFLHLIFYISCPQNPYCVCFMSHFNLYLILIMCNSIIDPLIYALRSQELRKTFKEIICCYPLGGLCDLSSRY

On to `CCCC[C@H](NC(C)=O)C(=O)N[C@H]1CCC(=O)NCC[C@@H](C(N)=O)NC(=O)[C@H](CCCNC(=N)N)NC(=O)[C@@H](Cc2ccc(OC)cc2)NC(=O)[C@H](CCCN)NC1=O` [Example 9.64, Ac-Nle-cyclo(Glu-Orn-D-Phe(4-OMe)-Arg-Dab)-NH2] (Ac-[Nle]E[Orn][dY](Me)R[Dab]-NH2; lactam 2-6), for which, on hMCR-1, the EC50 was 0.12 nM. Further, the values for the Ki on hMCR-4 and at hMCR-1a were 10000 nM and 2 nM, respectively.
The like results for `CCCC[C@H](NC(C)=O)C(=O)N[C@H]1CCC(=O)NCC[C@@H](C(N)=O)NC(=O)[C@H](CCCNC(=N)N)NC(=O)[C@@H](Cc2ccc(F)c(F)c2)NC(=O)[C@H](CCCN)NC1=O` [Example 9.62, Ac-Nle-cyclo(Glu-Orn-D-Phe(3,4-F)-Arg-Dab)-NH2] (Ac-[Nle]E[Orn][dPhe(3,4-F2)]R[Dab]-NH2; lactam 2-6) were, in that order, 1 nM, 10000 nM and 40 nM.
On to `CCCC[C@H](NC(C)=O)C(=O)N[C@H]1CCC(=O)NCC[C@@H](C(=O)N[C@@H](Cc2c[nH]c3ccccc23)C(N)=O)NC(=O)[C@H](CCCNC(=N)N)NC(=O)[C@@H](Cc2ccccc2)NC(=O)[C@H](C)NC1=O` [Example 9.49, Ac-Nle-cyclo(Glu-Ala-D-Phe-Arg-Dab)-Trp-NH2], for which the “MC-1 Emax (average; cAMP HBL)” value at hMCR-1 is listed as 86% ^.
`CCCC[C@H](NC(C)=O)C(=O)N[C@H]1CCC(=O)NCC[C@@H](C(=O)N[C@@H](Cc2c[nH]c3ccccc23)C(N)=O)NC(=O)[C@H](CCCNC(=N)N)NC(=O)[C@@H](Cc2ccccc2)NC(=O)[C@H]2CCCN2C1=O` [Example 9.66, Ac-Nle-cyclo(Glu-Pro-D-Phe-Arg-Dab)-Trp-NH2]: the figures for the inhibition constant (Ki) on hMCR-4 and on hMCR-1a were 185 nM and 3 nM, respectively.
In the case of `CCCC[C@H](NC(C)=O)C(=O)N[C@H]1CCC(=O)NCC[C@@H](C(N)=O)NC(=O)[C@H](CCCNC(=N)N)NC(=O)[C@@H](Cc2ccccc2)NC(=O)[C@H](CCCN)NC1=O` [Example 9.56, Ac-Nle-cyclo(Glu-Orn-D-Phe-Arg-Dab)-NH2] (Ac-[Nle]E[Orn][dF]R[Dab]-NH2; lactam 2-6), the Ki came to 3620 nM at hMCR-4 and 4 nM on hMCR-1a.
Regarding `N=C(N)NCCC[C@@H]1NC(=O)[C@@H](Cc2ccccc2)NC(=O)[C@H](Cc2c[nH]cn2)NC(=O)[C@@H](NC(=O)C2CC2)CCC(=O)NCC[C@@H](C(=O)N[C@@H](Cc2c[nH]c3ccccc23)C(N)=O)NC1=O` [Example 9.19, cyclo-propanoyl-cyclo(Glu-His-D-Phe-Arg-Dab)-Trp-NH2], the Ki at hMCR-1a is 3 nM.
Take `CCCC[C@H](NC(C)=O)C(=O)N[C@H]1CCC(=O)NCC[C@@H](C(=O)N[C@@H](Cc2c[nH]c3ccccc23)C(N)=O)NC(=O)[C@H](CCCNC(=N)N)NC(=O)[C@@H](Cc2ccccc2)NC(=O)[C@H](CCN)NC1=O` [Example 9.54, Ac-Nle-cyclo(Glu-Dab-D-Phe-Arg-Dab)-Trp-NH2]: the “MC-1 Emax (average; cAMP HBL)” value at hMCR-1 was 108% ^.
`CCCC[C@H](NC(C)=O)C(=O)N[C@H]1CCC(=O)NCC[C@@H](C(=O)N[C@@H](Cc2c[nH]c3ccccc23)C(N)=O)NC(=O)[C@H](CCCNC(=N)N)NC(=O)[C@@H](Cc2ccccc2)NC(=O)[C@H](CCCNC(=N)N)NC1=O` [Example 9.50, Ac-Nle-cyclo(Glu-Arg-D-Phe-Arg-Dab)-Trp-NH2]: the “MC-1 Emax (average; cAMP HBL)” value at hMCR-1 is reported as 100% ^.
Turning to `N=C(N)NCCC[C@@H]1NC(=O)[C@@H](Cc2ccccc2)NC(=O)[C@H](Cc2c[nH]cn2)NC(=O)[C@@H](NC(=O)CC2CCCC2)CCC(=O)NCC[C@@H](C(=O)N[C@@H](Cc2c[nH]c3ccccc23)C(N)=O)NC1=O` [Example 9.21, cyclopentyl acetyl-cyclo(Glu-His-D-Phe-Arg-Dab)-Trp-NH2], the EC50 on hMCR-1 was determined as 0.004 nM. Moreover, the Ki on hMCR-1a was 0.01 nM.
As to `CCCC[C@H](NC(C)=O)C(=O)N[C@H]1CNC(=O)CCC(=O)NCC[C@@H](C(=O)N[C@@H](Cc2c[nH]c3ccccc23)C(N)=O)NC(=O)[C@H](CCCNC(=N)N)NC(=O)[C@@H](Cc2ccccc2)NC(=O)[C@H](Cc2c[nH]cn2)NC1=O` [Example 9.43], the Ki at hMCR-4 was 860 nM; on hMCR-1a, 0.065 nM.
`CCCC[C@H](NC(C)=O)C(=O)N[C@H]1CCC(=O)NCC[C@@H](C(=O)N[C@@H](CCCCN)C(N)=O)NC(=O)[C@H](CCCNC(=N)N)NC(=O)[C@@H](Cc2ccccc2)NC(=O)[C@H](Cc2c[nH]cn2)NC1=O` [Example 9.52, Ac-Nle-cyclo(Glu-His-D-Phe-Arg-Dab)-Lys-NH2] (Ac-[Nle]EH[dF]R[Dab]K-NH2; lactam 2-6): the “MC-1 Emax (average; cAMP HBL)” value on hMCR-1 is on record as 91% ^.
Same read-out and setting: to `CCCC[C@H](NC(C)=O)C(=O)N[C@H]1CCC(=O)NCC[C@@H](C(N)=O)NC(=O)[C@H](CCCNC(=N)N)NC(=O)[C@@H](Cc2ccccc2)NC(=O)[C@H](Cc2c[nH]cn2)NC1=O` [Example 9.44, Ac-Nle-cyclo(Glu-His-D-Phe-Arg-Dab)-NH2] (Ac-[Nle]EH[dF]R[Dab]-NH2; lactam 2-6) belongs 85% ^.
Take `CCCC[C@H](NC(C)=O)C(=O)N[C@H]1CCC(=O)NCC[C@@H](C(N)=O)NC(=O)[C@H](CCCNC(=N)N)NC(=O)[C@@H](Cc2ccc(C)cc2)NC(=O)[C@H](CCCN)NC1=O` [Example 9.63, Ac-Nle-cyclo(Glu-Orn-D-Phe(4-Me)-Arg-Dab)-NH2] (Ac-[Nle]E[Orn][dPhe(4-Me)]R[Dab]-NH2; lactam 2-6): the Ki at hMCR-4 was determined as 10000 nM; on hMCR-1a, 3 nM.
With `CCCC[C@H](NC(C)=O)C(=O)N[C@H]1CCC(=O)NCC[C@@H](C(=O)N[C@@H](Cc2c[nH]c3ccccc23)C(N)=O)NC(=O)[C@H](CCCNC(=N)N)NC(=O)[C@@H](Cc2ccccc2)NC(=O)[C@H](CCCN)NC1=O` [Example 9.55, Ac-Nle-cyclo(Glu-Orn-D-Phe-Arg-Dab)-Trp-NH2], the “MC-1 Emax (average; cAMP HBL)” value at hMCR-1 is given as 109% ^.
As to `CCCC[C@H](NC(C)=O)C(=O)N[C@H]1CCC(=O)NCC[C@@H](C(=O)N[C@@H](Cc2c[nH]c3ccccc23)C(N)=O)NC(=O)[C@H](CCCNC(=N)N)NC(=O)[C@@H](Cc2ccccc2)NC(=O)[C@H](Cc2c[nH]cn2)NC1=O` [Example 9.31, Ac-Nle-cyclo(Glu-His-D-Phe-Arg-Dab)-Trp-OH], on hMCR-1, the “MC-1 Emax (average; cAMP HBL)” value is 79% ^. Also, the Ki at hMCR-4 was 10000 nM.
As for `CCCC[C@H](NC(C)=O)C(=O)N[C@H]1CCC(=O)NCC[C@@H](C(=O)N[C@@H](Cc2c[nH]c3ccccc23)C(N)=O)NC(=O)[C@H](CCCNC(=N)N)NC(=O)[C@@H](Cc2ccccc2)NC(=O)[C@H](CCCCN)NC1=O` [Example 9.53, Ac-Nle-cyclo(Glu-Lys-D-Phe-Arg-Dab)-Trp-NH2], the “MC-1 Emax (average; cAMP HBL)” value at hMCR-1 worked out at 108% ^.
Still for that read-out and setting: to `CCCC[C@H](NC(C)=O)C(=O)N[C@H]1CCC(=O)NCC[C@@H](C(=O)N[C@@H](Cc2c[nH]c3ccccc23)C(N)=O)NC(=O)CNC(=O)[C@@H](Cc2ccccc2)NC(=O)[C@H](Cc2c[nH]cn2)NC1=O` [Example 9.47, Ac-Nle-cyclo(Glu-His-D-Phe-Gly-Dab)-Trp-NH2] (Ac-[Nle]EH[dF]G[Dab]W-NH2; lactam 2-6) belongs 59%; to `CCCC[C@H](NC(C)=O)C(=O)N[C@H]1CCC(=O)NCC[C@@H](C(N)=O)NC(=O)[C@H](C)NC(=O)[C@@H](Cc2ccccc2)NC(=O)[C@H](Cc2c[nH]cn2)NC1=O` [Example 9.45, Ac-Nle-cyclo(Glu-His-D-Phe-Ala-Dab)-NH2] (Ac-[Nle]EH[dF]A[Dab]-NH2; lactam 2-6), 73%; to `CCCC[C@H](NC(C)=O)C(=O)N[C@H]1CCC(=O)NCC[C@@H](C(=O)N[C@@H](Cc2c[nH]c3ccccc23)C(N)=O)NC(=O)[C@H](CCCNC(=N)N)NC(=O)[C@@H](Cc2ccccc2)NC(=O)[C@H](CCCNC(N)=O)NC1=O` [Example 9.51, Ac-Nle-cyclo(Glu-Cit-D-Phe-Arg-Dab)-Trp-NH2], 97% ^.
`CCCC[C@H](NC(C)=O)C(=O)N[C@H]1CCC(=O)NCC[C@@H](C(N)=O)NC(=O)[C@@H](Cc2ccccc2)NC(=O)[C@H](Cc2c[nH]cn2)NC1=O` [Example 9.46, Ac-Nle-cyclo(Glu-His-D-Phe-Dab)-NH2] (Ac-[Nle]EH[dF][Dab]-NH2; lactam 2-5): the Ki at hMCR-4 and on hMCR-1a was 10000 nM throughout.
